# Reference: paper PMC12677652, “Procyanidin B3 and Its Derivatives Alleviate Neuronal Injury by Targeting G3BP1 for Ischemic Stroke Therapy” (Advanced Science, 2025)
# Test system: G3BP1 knockdown HT22 cells
# Experiment: Activity of PB3 in G3BP1 knockdown (siRNA) HT22 cells
# Type: cell-based
# Settings: PB3 50 µM
# Description: The CCK‐8 assay kit (Yeasen, China) was used to assess cell viability. All operations were performed following instructions. HT22 cells were seeded into the 96‐well plate (3000 cells per well). The cells were cultured at 37 °C with 5% CO2 in a humidified incubator overnight. After 6 h of OGD, the medium was replaced by DMEM/F‐12 with 10% FBS and 1% penicillin/streptomycin containing PB3 or other compounds and kept in a humidified 5% CO2, 37 °C incubator for 24 h. Then, the cells were washed with PBS, the medium was replaced with DMEM/F‐12 with 10% FBS and 1% penicillin/streptomycin containing 10% CCK‐8 solution, and incubated for 1 h at 37 °C. The absorbance was assessed by a Synergy H1 multi‐mode microplate reader (BioTek, USA) at 450 nm.
# Apoptosis level was evaluated by TUNEL staining and flow cytometry. For TUNEL staining, HT22 cells were treated with 4% paraformaldehyde for 15 min. […] Red fluorescence was utilized to identify apoptotic cells, while 4′, 6‐diamidino‐2‐phenylindole (DAPI) was used to counterstain the nuclei. The fluorescence microscope (Carl Zeiss, Germany) was used to obtain images. For flow cytometry, apoptotic cells were determined with the Annexin V‐Alexa Fluor 488/PI apoptosis detection kit (Yeasen, China) by following the instructions. […] Cell apoptosis was immediately determined by Cytek Aurora (Cytek Biosciences, USA). […]
compound,measurement,value
"Oc1cc(O)c2c(c1)O[C@H](c1ccc(O)c(O)c1)[C@@H](O)[C@@H]2c1c(O)cc(O)c2c1O[C@H](c1ccc(O)c(O)c1)[C@@H](O)C2 [Compound 1, procyanidin B3]","cell viability, effect of G3BP1 knockdown",inhibited the neuroprotective effects
same,rate of TUNEL‐positive cells,not significantly changed
